Experimental data as given in ChEMBL document CHEMBL1201862, “PubChem BioAssay data set” (2004).
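Step 1: Grow cells in 96-well plates. Step 2: Expose to compound for 48 hours at 5 concentrations. Step 3: Interpolate endpoints linearly; if unreached, use highest concentration. Here, GI50 denotes the concentration required for 50% inhibition of growth.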 Active and inactive are the calls of the source. Cut-off read from the data, not from the text of the source: active = GI50 up to about 1.1 µM and inactive = higher.

What was measured:
Experiment in all cases: NCI anticancer screen, dose series, 48 h
[1] = system: RXF 393
[2] = system: SF-295
[3] = system: UO-31
[4] = system: HCT-116
[5] = system: K562
[6] = system: SNB-75
[7] = system: MOLT-4
[8] = system: LOX IMVI
[9] = system: OVCAR-3
[10] = system: HOP-62
[11] = system: KM-20L2
[12] = system: NCI-H23
[13] = system: SK-MEL-2
[14] = system: HCC 2998
[15] = system: OVCAR-5
[16] = system: ACHN
[17] = system: TK-10
[18] = system: CAKI-1
[19] = system: KM12
[20] = system: BT-549

Row | Structure (SMILES) | GI50 [1] | GI50 [2] | GI50 [3] | GI50 [4] | GI50 [5] | GI50 [6] | GI50 [7] | GI50 [8] | GI50 [9] | GI50 [10] | GI50 [11] | GI50 [12] | GI50 [13] | GI50 [14] | GI50 [15] | GI50 [16] | GI50 [17] | GI50 [18] | GI50 [19] | GI50 [20]
1 | Cc1ccccc1/N=N/c1c(-c2ccccc2)nn(C(=O)CC(=O)Nc2cccc(Cl)c2)c1-c1ccccc1 | 19.9 µM (inactive) | 22 µM (inactive) | 14.5 µM (inactive) | 13.4 µM (inactive) | 16.8 µM (inactive) | 28.2 µM (inactive) | 13 µM (inactive) | 15.3 µM (inactive) | 18.5 µM (inactive) | > 31.6 µM (inactive) | 21.5 µM (inactive) | 20.1 µM (inactive) | 12.7 µM (inactive) | 22.2 µM (inactive) | 16.7 µM (inactive) | 23 µM (inactive) | 0.27 µM (active) | 31.6 µM (inactive) | – | –
2 | COc1ccc(-c2cc(-c3ccco3)c(C#N)c(=O)n2C2OC(OC(=O)c3ccccc3)C(OC(=O)c3ccccc3)C2OC(=O)c2ccccc2)cc1 (stereo unspecified) | 14.4 µM (inactive) | 50.2 µM (inactive) | 46 µM (inactive) | 40.2 µM (inactive) | > 100 µM (inactive) | 72.1 µM (inactive) | > 100 µM (inactive) | > 100 µM (inactive) | 58.6 µM (inactive) | 52.6 µM (inactive) | > 100 µM (inactive) | > 100 µM (inactive) | > 100 µM (inactive) | > 100 µM (inactive) | > 100 µM (inactive) | > 100 µM (inactive) | 13.6 µM (inactive) | > 100 µM (inactive) | > 100 µM (inactive) | –
3 | COc1cc2c(cc1OC)[C@H]1C(COC(=O)c3ccccc3)CS/C(=N/c3ccccc3)N1CC2 (stereo partly specified) | 13.3 µM (inactive) | > 100 µM (inactive) | 24.5 µM (inactive) | 5.68 µM (inactive) | – | 27.7 µM (inactive) | 2.91 µM (inactive) | 92.9 µM (inactive) | > 100 µM (inactive) | > 100 µM (inactive) | 76 µM (inactive) | 5.9 µM (inactive) | 3.21 µM (inactive) | > 100 µM (inactive) | 3.54 µM (inactive) | > 100 µM (inactive) | 81.1 µM (inactive) | > 100 µM (inactive) | > 100 µM (inactive) | –
4 | COC(=O)C(CCCCCCCC(C(=O)OC)C1=Nc2nnc(N)n2C1=O)C1=Nc2nnc(N)n2C1=O (stereo unspecified) | 55.8 µM (inactive) | 61.9 µM (inactive) | > 100 µM (inactive) | > 100 µM (inactive) | – | 48.3 µM (inactive) | > 100 µM (inactive) | > 100 µM (inactive) | > 100 µM (inactive) | > 100 µM (inactive) | > 100 µM (inactive) | > 100 µM (inactive) | > 100 µM (inactive) | > 100 µM (inactive) | > 100 µM (inactive) | > 100 µM (inactive) | > 100 µM (inactive) | 11.2 µM (inactive) | > 100 µM (inactive) | –
5 | COc1ccc(C(=O)O/N=C2/CCCCC2CN(C)C)cc1 (stereo unspecified) | > 100 µM (inactive) | > 100 µM (inactive) | > 100 µM (inactive) | > 100 µM (inactive) | > 100 µM (inactive) | > 100 µM (inactive) | > 100 µM (inactive) | > 100 µM (inactive) | > 100 µM (inactive) | > 100 µM (inactive) | > 100 µM (inactive) | > 100 µM (inactive) | > 100 µM (inactive) | > 100 µM (inactive) | > 100 µM (inactive) | > 100 µM (inactive) | > 100 µM (inactive) | > 100 µM (inactive) | > 100 µM (inactive) | –
6 | COc1ccccc1/C=N/C12CC3CC(CC(C3)C1)C2 | > 100 µM (inactive) | > 100 µM (inactive) | > 100 µM (inactive) | > 10 µM (inactive) | 32.4 µM (inactive) | 86.9 µM (inactive) | > 100 µM (inactive) | > 100 µM (inactive) | > 100 µM (inactive) | > 100 µM (inactive) | > 100 µM (inactive) | > 100 µM (inactive) | > 100 µM (inactive) | > 100 µM (inactive) | > 100 µM (inactive) | > 100 µM (inactive) | > 100 µM (inactive) | > 100 µM (inactive) | > 100 µM (inactive) | –
7 | O=C(O)CCCc1ccc(N(CCCl)CCCl)cc1 [CHLORAMBUCIL] | 33.2 µM (inactive) | 39.2 µM (inactive) | 70.1 µM (inactive) | 106 µM (inactive) | 107 µM (inactive) | 54 µM (inactive) | 5.78 µM (inactive) | 40.3 µM (inactive) | 111 µM (inactive) | 36.1 µM (inactive) | 132 µM (inactive) | 26.6 µM (inactive) | 155 µM (inactive) | 103 µM (inactive) | 97.1 µM (inactive) | 14.4 µM (inactive) | 171 µM (inactive) | 17.3 µM (inactive) | 143 µM (inactive) | 112 µM (inactive)
